From BindingDB's records for doi:10.1111/j.1747-0285.2006.00365.x (Johnson & Johnson Pharmaceutical Research & Development, 2006)

These molecules were tested against p53 binding protein (Homo sapiens, UniProt Q9H4C2) (assay: HDM2 Binding Assay).
Excerpt: Binding assay using 1,4-benzodiazepine-2,5-dione (BZD) scaffold and HDM2-p53 protein.

p53 binding protein, sequence (Q9H4C2 whole entry): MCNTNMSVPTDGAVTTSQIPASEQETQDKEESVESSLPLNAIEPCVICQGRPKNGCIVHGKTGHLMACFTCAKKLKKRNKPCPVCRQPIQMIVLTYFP

| Structure (SMILES) | IC50 [µM] |
| --- | --- |
| O=C(O)C(c1ccccc1)N1C(=O)c2ccccc2NC(=O)C1c1ccccc1 (stereo not given) [BZD Scaffold, 1] | > 125 |
| CC(C)c1ccc2c(c1)C(=O)N(C(C(=O)O)c1ccc(Cl)cc1)C(c1ccc(Cl)cc1)C(=O)N2 (stereo not given) [BZD Scaffold, 2] | 1 |
| O=C(O)C(c1ccccc1)N1C(=O)c2cc(I)ccc2NC(=O)C1c1ccccc1 (stereo not given) [BZD Scaffold, 3] | 29 |

The next lines start with the values.

| IC50 [µM] | Structure (SMILES) |
| --- | --- |
| 3.8 | O=C(O)C(c1ccccc1)N1C(=O)c2cc(I)ccc2NC(=O)C1c1ccc(C(F)(F)F)cc1 (stereo not given) [BZD Scaffold, 4] |
| 1.7 | O=C(O)C(c1ccccc1)N1C(=O)c2cc(I)ccc2NC(=O)C1c1ccc(Cl)cc1 (stereo not given) [BZD Scaffold, 5] |
